Data on 27 molecules can be found in ChEMBL document CHEMBL5532687, “A colorimetric assay adapted to fragment screening revealing aurones and chalcones as new arginase inhibitors” (RSC Med Chem, 2024).

pIC50: −log10 of the molar value.

The target in the experiment is T1, Arginase-1 (Bos taurus, UniProt Q2KJ64).
T1 sequence (Q2KJ64 whole entry): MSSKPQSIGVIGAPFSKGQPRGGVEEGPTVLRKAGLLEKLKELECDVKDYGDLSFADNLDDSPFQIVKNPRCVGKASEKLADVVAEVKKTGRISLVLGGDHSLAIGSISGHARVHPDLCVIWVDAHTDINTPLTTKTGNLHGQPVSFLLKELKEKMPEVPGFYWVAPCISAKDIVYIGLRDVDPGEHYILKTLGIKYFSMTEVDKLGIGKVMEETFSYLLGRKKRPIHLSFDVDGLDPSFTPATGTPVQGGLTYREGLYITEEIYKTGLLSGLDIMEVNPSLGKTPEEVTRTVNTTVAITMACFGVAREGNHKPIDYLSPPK
Description: Inhibition of bovine liver arginase 1 using L-arginine as substrate incubated for 60 mins by OPA-p colorimetric assay.
The term pIC50 denotes −log10 of the IC50, conventionally taken in molar units. Molecule `O=C(/C=C/c1ccc(O)c(O)c1)c1ccccc1` showed a pIC50 of 3.45.
Consider `O=C1C(=Cc2ccc(O)c(O)c2)C(=O)c2ccccc21`, for which the negative-log IC50 (pIC50) is 3.27.
The same measure for `O=C1/C(=C/c2ccc(O)c(O)c2O)Oc2c1ccc(O)c2O`: 3.27; for `O=C(/C=C/c1ccccc1)c1ccc(O)c(O)c1`: 3.42.
For `O=C1/C(=C/c2ccc(O)c(O)c2)Oc2c1ccc(O)c2O`, the negative-log IC50 (pIC50) was 3.60.
The same measure for `N[C@@H](CSCCB(O)O)C(=O)O`: 4.64; for `O=C(/C=C/c1ccc(O)c(O)c1)c1ccc(O)cc1`: 3.45.
The molecule `Oc1cccc(O)c1O` [PYROGALLOL] showed a negative logarithm of the IC50 (pIC50) of 3.43.
In the case of `O=C(/C=C/c1ccc(O)c(O)c1)c1ccc(O)cc1O` [BUTEIN], the pIC50 was 2.81.
The molecule `Oc1cc(O)cc(/C=C/c2ccc(O)c(O)c2)c1` [PICEATANNOL] had a pIC50 of 4.15.
In the case of `O=C1/C(=C/c2cccc(O)c2)Oc2c1ccc(O)c2O`, the negative-log IC50 (pIC50) is 3.92.
For `Oc1ccc(Cl)cc1C1CC(c2ccco2)=NN1` (configuration not stated) the value was 3.14.
For `O=C1/C(=C/c2ccc(O)cc2)Oc2c1ccc(O)c2O` the value was 2.72; for `O=C1/C(=C/c2cc(O)c(O)c(O)c2)Oc2c1ccc(O)c2O`, 3.54.
Molecule `O=C(/C=C/c1cc(O)c(O)c(O)c1)c1ccc(O)c(O)c1` had a pIC50 of 3.12.
`O=C(/C=C/c1ccc(O)c(O)c1)O[C@@H]1C[C@](O)(C(=O)O)C[C@@H](O)[C@H]1O` [CHLOROGENIC ACID] gave a negative logarithm of the IC50 (pIC50) of 3.57. This pIC50 is 0.45 log units higher than that of the molecule before.
Regarding `O=C(/C=C/c1ccc(O)c(O)c1)c1c(O)cc(O)cc1O` [3,4,2',4',6'-PENTAHYDROXYCHALCONE], the pIC50 is 4.01.
For the molecule `O=C(/C=C/c1ccc(O)c(O)c1)c1cccc(O)c1`, the pIC50 was 3.99.
For `O=C1/C(=C/c2c(F)c(F)c(F)c(F)c2F)Oc2c1ccc(O)c2O` the value was 2.96; for `O=C(/C=C/c1ccc(O)cc1)c1ccc(O)c(O)c1`, 3.52; for `O=C(/C=C/c1cccc(O)c1)c1ccc(O)c(O)c1`, 3.87.
The same measure for `O=C1/C(=C/c2ccc(F)c(F)c2)Oc2c1ccc(O)c2O`: 3.51; for `O=C1/C(=C/c2ccc(O)c(O)c2)Oc2cc(O)ccc21` [SULFURETIN]: 3.36; for `O=C(/C=C/c1ccc(O)c(O)c1)c1cc(O)cc(O)c1`: 3.87.
`O=C(/C=C/c1ccc(O)c(O)c1)c1ccc(O)c(O)c1` showed a negative-log IC50 (pIC50) of 4.04.
`O=C(/C=C/c1cc(O)cc(O)c1)c1ccc(O)c(O)c1` showed a pIC50 of 3.44.
`O=C1/C(=C/c2ccc(F)cc2)Oc2c1ccc(O)c2O` showed a pIC50 of 3.29. This pIC50 and that of the molecule before are within 0.2 log units of each other.
